The record followed here is ChEMBL document CHEMBL1158801, “Acylphloroglucinol derivatives from Mahurea palustris” (J Nat Prod, 2005).

For orientation: IC50 means the concentration that inhibits the measured activity by half.

Calls of active or inactive are those of the source. No cut-off for these calls is given here.

One test has as its target DNA polymerase beta (Homo sapiens, UniProt P06746). As to the kind of experiment: Inhibition of human recombinant DNA polymerase beta assessed as fluorescein-12-dCTP incorporation by fluorimetry.
On to `Nc1ccn([C@H]2CC[C@@H](COP(=O)(O)OP(=O)(O)OP(=O)(O)O)O2)c(=O)n1` [ddCTP SODIUM], for which the IC50 was determined as 1.3 µM.
With `CCC(C)C(=O)C1=C(O)OC2=C(C(CC(=O)O)c3ccccc3)C(C)(C)C(CC=C(C)C)CC2(CC=C(C)C)C1=O` (stereo not given) [MAHUREONE B], the IC50 turned out to be 73 µM.
Take `CCC(C)C(=O)C1=C(O)OC2=C(C(CC(=O)O)c3ccccc3)C(C)(C)C(CCC(C)(C)NC(C)=O)CC2(CC=C(C)C)C1=O` (stereo not given): the outcome was inactive.
On to `CCCC(CC(=O)O)C1=C2OC(O)=C(C(=O)C(C)CC)C(=O)C2(CC=C(C)C)CC(CC=C(C)C)C1(C)C` (stereo not given) [MAHUREONE E], for which the half-inhibitory concentration (IC50) was determined as 342 µM.
Same read-out and setting: in the case of `CC(C)=CCC1CC2(CC=C(C)C)C(=O)C(C(=O)CC(C)C)=C(O)OC2=C(C(CC(=O)O)c2ccccc2)C1(C)C` (stereo not given) [MAHUREONE A] it was 28 µM; in that of `CCCC(CC(=O)O)C1=C2OC(O)=C(C(=O)CC(C)C)C(=O)C2(CC=C(C)C)CC(CC=C(C)C)C1(C)C` (stereo not given) [MAHUREONE D], 12 µM.
For the compound `CC(C)=CCC1CC2(CC=C(C)C)C(=O)C(C(=O)C(C)C)=C(O)OC2=C(C(CC(=O)O)c2ccccc2)C1(C)C` (stereo not given), the result was inactive.
Still for that read-out and setting: in the case of `CCC(C)C(=O)C1=C(O)OC2=C(C(CC(=O)O)c3ccccc3)C(C)(C)C(CCC(C)(C)O)CC2(CC=C(C)C)C1=O` (stereo not given) it was “inactive”; in that of `CCC(C)C(=O)C1=C(O)OC2=C(C(CC(=O)O)c3ccccc3)C(C)(C)C(CCC(C)(C)OC(=O)C(F)(F)F)CC2(CC=C(C)C)C1=O` (stereo not given), “inactive”.

In another test the test system is Human immunodeficiency virus. The test can be described thus: Inhibition of HIV reverse transcriptase at 50 uM.
For the compound `CC(C)=CCC1CC2(CC=C(C)C)C(=O)C(C(=O)CC(C)C)=C(O)OC2=C(C(CC(=O)O)c2ccccc2)C1(C)C` (stereo not given) [MAHUREONE A], the fold change (FC) came out at 2.
